Experiments:
CF-1 male albino mice = experiment: Maximal Electroshock Test (MES); assay type: in vivo; details: oral; for MES Activity (in words): time not stated
Description: Anticonvulsant activity was determined using the MES test, run according to the procedure described in detail below. Swinyard E A, Woodhead J H, White H S, Franklin M R. Experimental selection, quantification, and evaluation of anticonvulsants. In Levy R H, et al., eds. Antiepileptic Drugs. 3rd ed. New York: Raven Press, 1989:85-102
CF-1 male albino mice (25-35 g) were fasted for 16 hours before testing. Mice were randomly selected into control and test groups, with the animals dosed with vehicle or test compound, at varying concentrations, respectively. On the study date, at 30 minutes prior to shock, the mice were orally dosed with vehicle (0.5% methylcellulose) or test compound (100-300 mg/kg). Seizures were induced by trans-corneal electric shock using a 60-Hz alternating current, 50 mA, delivered for 0.2 sec. The mice in the test groups were subjected to electrical stimulus at time intervals between 15 minutes and 4 hours following administration of test compound. […] The test was complete when the entire course of the convulsion has been observed (typically, less than 1 minute after electrical stimulation), and the mice were then immediately euthanized by carbon dioxide inhalation.
Abolition of the full body tonic extensor component of the seizure was taken as the endpoint of the test. […] The ED50 value of the test compound (calculated when appropriate) was the calculated dose required to block the hind limb tonic-extensor component of the MES-induced seizure in 50% of the rodents tested. A probit analysis was used to calculate the ED50 and 95% fiducial limits (FL).
Representative compounds of the present invention were tested according to the procedure described above, with results as listed in Table 4 below. Results are listed as number of mice with full body tonic extension prevented/total number of mice tested @ time (at a given test compound dosage level).

carbonic anhydrase = details: background statement, no assay details; cited from earlier work

Compound | melting point [°C] | also measured
NS(=O)(=O)OC[C@H]1COc2cc(Cl)ccc2O1 (stereo in doubt) [ID No. 12, Sulfamic acid, 6-chloro-2,3-dihydro-benzo[1,4]dioxin-2-ylmethyl ester] | 113 to 116 | 
NS(=O)(=O)NC[C@H]1COc2ccccc2O1 [ID No. 4, (2S)-(−)-N-(2,3-Dihydro-benzo[1,4]dioxin-2-ylmethyl)-sulfamide] |  | MES Activity: number of mice with full body tonic extension prevented/total number of mice tested (CF-1 male albino mice; 300 mg/kg, @ 1 h): 5/5 @ 1 h (300 mg/kg)
NS(=O)(=O)OCC1CCc2ccccc2O1 (stereo not shown) [ID No. 11, Chroman-2-ylmethylsulfamate] | 87 to 90 | 
Cc1ccc2c(c1)O[C@@H](CNS(N)(=O)=O)CO2 [ID No. 19, (2S)-(−)-N-(7-Methyl-2,3-dihydro-benzo[1,4]dioxin-2-ylmethyl)-sulfamide] |  | MES Activity: number of mice with full body tonic extension prevented/total number of mice tested (CF-1 male albino mice; 300 mg/kg, @ 0.5 h): 5/5 @ 0.5 h (300 mg/kg)
NS(=O)(=O)OC[C@H]1COc2cc(Cl)c(Cl)cc2O1 [ID No. 27, Sulfamic acid, 6.7 dichloro-2,3-dihydro-benzo[1,4]dioxin-2-ylmethyl ester] | 109 to 111 | MES Activity: number of mice with full body tonic extension prevented/total number of mice tested (CF-1 male albino mice; 100 mg/kg, @ 4 h): 5/5 @ 4 h (100 mg/kg)
Nc1ccc2c(c1)O[C@@H](CNS(N)(=O)=O)CO2 [ID No. 36, (2S)-(−)-N-(7-Amino-2,3-dihydro-benzo[1,4]dioxin-2-ylmethyl)-sulfamide] |  | MES Activity (in words) (CF-1 male albino mice; 100 mg/kg): Inactive @ 100 and 300 mg/kg; MES Activity (in words) (CF-1 male albino mice; 300 mg/kg): Inactive @ 100 and 300 mg/kg
CC1(C)O[C@@H]2[C@@H](CO[C@@]3(COS(N)(=O)=O)OC(C)(C)O[C@@H]23)O1 [Topiramate] |  | carbonic anhydrase inhibition (carbonic anhydrase): single digit micromolar

Second part, led by results:

melting point [°C] | Compound | also measured
76 to 78 | CN(C)S(=O)(=O)NCC1COc2ccccc2O1 (stereo not shown) [ID No. 6, N-(2,3-Dihydro-benzo[1,4]dioxin-2-ylmethyl)-N′,N′ dimethylsulfamide] | 
97 to 98 | CN(CC1COc2ccccc2O1)S(N)(=O)=O (stereo not shown) [ID No. 7, N-(2,3-Dihydro-benzo[1,4]dioxin-2-ylmethyl)-N-methylsulfamide] | 
100 to 101 | NS(=O)(=O)NCC1CCc2ccccc2O1 (stereo not shown) [ID No. 10, Chroman-2-ylmethylsulfamide] | 
101 to 103 | NS(=O)(=O)NCCC1COc2ccccc2O1 (stereo not shown) [ID No. 16, 2-(2,3-Dihydro-benzo[1,4]dioxin-2-yl)-ethylsulfamide] | MES Activity: number of mice with full body tonic extension prevented/total number of mice tested (CF-1 male albino mice; 300 mg/kg, @ 0.5 h): 5/5 @ 0.5 h (300 mg/kg)
119 to 121 | NS(=O)(=O)NC[C@H]1COc2cc(Cl)c(Cl)cc2O1 [ID No. 29, (2S)-(−)-N-(6,7 Dichloro-2,3-dihydro-benzo[1,4]dioxin-2-ylmethyl)-sulfamide] | MES Activity: number of mice with full body tonic extension prevented/total number of mice tested (CF-1 male albino mice; 100 mg/kg, @ 4 h): 3/5 @ 4 h (100 mg/kg)
